# Measurements: patent publication US8192999B2, “Method for the identification of macromolecule targets of analytes” (priority 2005, dated 2012)
# System: E. coli proteins
# Experiment: Non-specific binding of MTX to proteins of E. coli cell lysate (HPLC co-fractionation)
# Settings: MTX-spiked E. coli extract; FIG. 9
smiles,measurement,value
"CN(Cc1cnc2nc(N)nc(N)c2n1)c1ccc(C(=O)N[C@@H](CCC(=O)O)C(=O)O)cc1 [MTX, methotrexate]",non-specific binding of the drug to E. coli proteins,no non-specific binding of the drug to any E. coli proteins was detected
